Series [1] can be described thus: In vitro drug release by dialysis method. The format is physicochemical. The note with it: pH 7.4 PBS, after 3 h.
Series [2] is described as follows: Drug absorption in rat small intestine. Type of series: in vivo. The note with it: SD rats, intragastric 5 mg/kg DOX equivalent, 2 h, CLSM.
Series [3] can be described thus: In vivo pharmacokinetic after oral administration. More on the design: species or system SD rats.

Counter-ions that a name gives are not always drawn.

As to `COc1cccc2c1C(=O)c1c(O)c3c(c(O)c1C2=O)C[C@@](O)(C(=O)CO)C[C@@H]3O[C@H]1C[C@H](N)[C@H](O)[C@H](C)O1` [DOX, doxorubicin hydrochloride], the “cumulative release amount of DOX” value in series [1] is listed as 90%. For the same molecule, the “DOX fluorescence signal in small intestine tissue” value in series [2] is reported as “almost no red fluorescence signal”. For the same molecule, the “Frel, relative bioavailability” value in series [3] (SD rats, oral, 30 mg/kg DOX equivalent, relative to DOX) turned out to be 100%. Besides, in series [3] (SD, rat, plasma, po, 30 mg/kg), the area under the curve (AUC) was found to be 4000 ± 20 ng·h/mL, the concentration peaked (Cmax) at 160 ± 10 ng/mL, the MRT is 24.6 ± 0.34 h and the Tmax was determined as 1 h. In series [3] (SD, rat, plasma, po, 30 mg/kg), this molecule gave a concentration at 1 h of 160 ng/mL, a concentration at 8 h of 130 ng/mL and a half-life of 12.6 ± 0.58 h.

A word on the AUC: it is the area under the concentration-time curve, a measure of exposure. By Cmax is commonly meant the highest concentration seen after dosing. The term MRT denotes a mean duration of stay, worked out from the concentration-time curve. The Tmax is the time at which the peak concentration occurs. As a reminder, the half-life is the time in which the quantity being followed falls by half. Read a low half-life as rapid decline.

(Values after article PMC9072246 (Acta Pharmaceutica Sinica. B, 2021).)
